Measurements published in US20250144110A1, “COMPOSITIONS OF AUTOPHAGY MODULATING AGENTS AND USES THEREOF” (Washington University, priority 2022, published 2025).

How the values were obtained:
[1] = Liver microsomal stability, mouse; type: in vitro ADME; conditions: mouse liver microsomes; read-out: LM stability Mouse t ½
Source text: (§1) As described herein, continued lead optimization afforded potent quinolones.

p62/SQSTM1 in HD-MSNs = assay: p62 immunoblot in HD-MSNs; type: cell-based, human; conditions: 0.5 μM, PID26, vs DMSO
Protocol: (§2) FIG. 1A-FIG. 1E is an exemplary embodiment showing autophagy activator rescues HD-MSNs from degeneration in accordance with the present disclosure. FIG. 1A depicts the chemical structure of Ex 3. FIG. 1B includes a representative immunoblot (left) for steady state levels of α1-antitrypsin Z variant (ATZ) and β-actin in the HTO/Z cell line model of α1-antitrypsin deficiency after 24 hr treatment with DMSO alone or Ex 3 in DMSO at 0.5 and 2.5 μM and a bar graph showing the normalized intensity (right) calculated from immunoblot images for 0.5 μM versus DMSO control (Individual data plotted, n=4 biological replicates; *p=0.003 by t-test; mean+/−s.e.m). FIG. 1C includes an immunoblot for p62 and GAPDH in HD-MSNs treated with DMSO or 0.5 μM Ex 3 at PID26 (left) and a bar graph showing intensity values were normalized by GAPDH intensities and the relative fold change over DMSO condition was calculated from immunoblot images of three independent HD-MSN lines (right). Each dot represents reprogrammed MSNs from three independent HD-MSN lines. […] FIG. 1E includes example photographs (top) of HD-MSNs treated with DMSO or 0.5 μM Ex 3 (PID 30) expressing the tandem monomeric RFP-GFP-LC3 reporter and a bar graph (bottom) showing quantification of autophagosome (i.e., RFP+, GFP+ puncta) and autolysosome (i.e., RFP+, GFP− puncta) compartments from three independent HD-MSNs. […]

HD-MSNs [2] = assay: Autophagic vacuoles by CYTO-ID green in HD-MSNs; type: cell-based, human; conditions: 0.5 μM, PID26, vs DMSO
Protocol: as §2

[3] = system: HD-MSNs expressing the RFP-GFP-LC3 reporter; assay: Tandem RFP-GFP-LC3 reporter in HD-MSNs; type: cell-based, human; conditions: 0.5 μM, PID30, vs DMSO
Protocol: as §2

HD-MSNs [4] = assay: HD-MSN death (SYTOX assay); survival of striatal neurons; type: cell-based, human; conditions: treated from PID14 every four days for 16 days
Protocol: as §2

HD-MSNs [5] = assay: Caspase 3/7 activation and Annexin V signal in HD-MSNs; type: cell-based, human; conditions: HD-MSNs at PID30; 0.125, 0.25 or 0.5 uM
Protocol: as §2

[6] = system: mHTT inclusion bodies in HD-MSNs; assay: HTT inclusion bodies in HD-MSNs; type: cell-based, human; conditions: 0.5 μM, PID30, vs DMSO
Protocol: as §2

[7] = Liver microsomal stability, human; type: in vitro ADME; conditions: human liver microsomes; read-out: LM stability Human t ½
Source text: as §1

half-life [1] [h]	Annexin V signal (HD-MSNs [5])	activated Caspase 3/7 signal (HD-MSNs [5])	half-life [7] [h]	Structure (SMILES)	p62/SQSTM1 protein levels (p62/SQSTM1 in HD-MSNs)	number of autophagic vacuoles (CYTO-ID signals) (HD-MSNs [2])	average number of autophagosomes and autolysosomes [3]	HD-MSN death (SYTOX-positive cells) (HD-MSNs [4])	number of mHTT inclusion bodies [6]
0.07	significant reduction	significant reduction	–	O=c1ccc2c(Cl)cc(Cl)cc2[nH]1 [Ex 3, 5,7-dichloro-1H-quinolin-2-one]	decreased p62/SQSTM1 protein levels	increased the number of autophagic vacuoles	increased the average number of autophagosomes and autolysosomes	significant reduction in HD-MSN death in a dose-dependent manner	reduced the number of mHTT inclusion bodies
> 2.42	–	–	> 2.42	O=c1ccc2c(C(F)(F)F)c(-c3ccc(Cl)cn3)ccc2[nH]1 [Ex 97, 6-(5-chloropyridin-2-yl)-5-(trifluoromethyl) quinolin-2 (1H)-one]	–	–	–	–	–
